Data from ChEMBL document CHEMBL4219241, “Design, synthesis, and structure-activity relationships of novel imidazo[4,5-c]pyridine derivatives as potent non-nucleoside inhibitors of hepatitis C virus NS5B” (Bioorg Med Chem, 2018).

Experiments:
[1] = biological target: T1, RNA-directed RNA polymerase (Hepacivirus hominis, UniProt O39930); assay: Inhibition of Hepatitis C virus genotype 1b NS5B RNA-dependent-RNA polymerase assessed as reduction in viral replication after 72 hrs by indirect immunofluorescence assay; parameters: species or system Hepatitis C virus subtype 1b
[2] = biological target: RNA-directed RNA polymerase (Hepacivirus hominis) (UniProt O39930); assay: Potency index, ratio of sofosbuvir EC50 to test compound EC50 for inhibition of Hepatitis C virus genotype 1b NS5B RNA-dependent-RNA polymerase assessed as reduction in viral replication; details: Hepatitis C virus subtype 1b
[3] = MRT (0 to infinity) in Sprague-Dawley rat at 35 mg/kg, po administered via gavage by UPLC-MS analysis; type: ADME, organism-based; details: in vivo
[4] = AUC (0 to infinity) in Sprague-Dawley rat at 35 mg/kg, po administered via gavage by UPLC-MS analysis; type: ADME, organism-based; parameters: dose 35 mg/kg, route oral, time infinity; details: in vivo
[5] = Apparent clearance during terminal phase in Sprague-Dawley rat at 35 mg/kg, po administered via gavage by UPLC-MS analysis; type: ADME, organism-based; details: in vivo, read-out: CLz/F (converted)
[6] = Apparent volume of distribution during terminal phase in Sprague-Dawley rat at 35 mg/kg, po administered via gavage by UPLC-MS analysis; type: ADME, organism-based; details: in vivo, read-out: Vz/F
[7] = Terminal half life in Sprague-Dawley rat at 35 mg/kg, po administered via gavage by UPLC-MS analysis; type: ADME, organism-based; details: in vivo, read-out: beta t1/2 (converted)
[8] = Cmax in Sprague-Dawley rat at 35 mg/kg, po administered via gavage by UPLC-MS analysis; type: ADME, organism-based; parameters: dose 35 mg/kg, route oral; details: in vivo
[9] = Tmax in Sprague-Dawley rat at 35 mg/kg, po administered via gavage by UPLC-MS analysis; type: ADME, organism-based; details: in vivo
[10] = biological target: T1, RNA-directed RNA polymerase; assay: Inhibition of Hepatitis C virus genotype 1b NS5B RNA-dependent-RNA polymerase; parameters: species or system Hepatitis C virus subtype 1b

T1 sequence (O39930 whole entry): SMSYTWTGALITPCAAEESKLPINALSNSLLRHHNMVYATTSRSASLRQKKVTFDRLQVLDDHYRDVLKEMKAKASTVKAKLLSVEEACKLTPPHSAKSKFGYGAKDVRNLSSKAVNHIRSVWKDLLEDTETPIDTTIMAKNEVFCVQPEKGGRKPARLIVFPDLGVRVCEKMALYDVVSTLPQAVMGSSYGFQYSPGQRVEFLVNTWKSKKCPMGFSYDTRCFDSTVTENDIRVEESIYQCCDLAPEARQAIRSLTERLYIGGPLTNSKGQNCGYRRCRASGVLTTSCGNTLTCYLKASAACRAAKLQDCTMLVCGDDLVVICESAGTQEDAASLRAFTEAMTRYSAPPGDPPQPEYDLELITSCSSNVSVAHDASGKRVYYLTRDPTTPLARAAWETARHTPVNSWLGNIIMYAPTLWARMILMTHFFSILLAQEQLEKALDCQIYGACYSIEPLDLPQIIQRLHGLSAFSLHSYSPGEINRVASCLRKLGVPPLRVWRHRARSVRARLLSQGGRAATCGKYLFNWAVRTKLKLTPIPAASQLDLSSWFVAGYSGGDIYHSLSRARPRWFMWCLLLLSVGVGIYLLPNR
Chain of RNA-directed RNA polymerase (Hepacivirus hominis) (O39930 1-591): as the sequence (O39930 whole entry) above

Fc1ccccc1-c1nc2ccn(Cc3nc4ccccc4n3-c3cccc(Cl)c3)cc-2n1
EC50 [1]: Not Active

Fc1ccccc1-c1nc2ccn(Cc3cn(-c4cc(C(F)(F)F)cc(C(F)(F)F)c4)nn3)cc-2n1
EC50 [1]: Not Active

Cc1cc(C)n2cc(Cn3ccc4nc(-c5ccccc5F)nc-4c3)nc2n1
EC50 [1]: Not Active

Cc1ccc(-n2c(Cn3ccc4nc(-c5ccccc5F)nc-4c3)nc3ccccc32)cc1
EC50 [1]: Not Active

Fc1ccccc1-c1nc2ccn(Cc3cn(Cc4nc5ccccc5n4-c4cccc(C(F)(F)F)c4)nn3)cc-2n1
EC50 [1]: Not Active

Fc1ccccc1-c1nc2ccn(Cc3cn(Cc4nc5ccccc5n4-c4ccccc4)nn3)cc-2n1
EC50 [1]: Not Active

Fc1ccccc1-c1nc2ccn(Cc3cn4cccnc4n3)cc-2n1
EC50 [1]: Not Active

Fc1ccccc1-c1nc2ccn(Cc3cn(-c4ccccc4)nn3)cc-2n1
Ratio EC50 [2]: 3

Fc1ccccc1-c1nc2ccn(Cc3nc4ccccc4n3-c3ccccc3)cc-2n1
EC50 [1]: Not Active

COc1ccc(-n2cc(Cn3ccc4nc(-c5ccccc5F)nc-4c3)nn2)cc1
MRT inf [3]: 2.18 h | AUC(0-inf) [4]: 72500 ng·h/mL | CL/F [5]: 8.33 mL/min/kg | Vd/F [6]: 2.12 L/kg | half-life [7]: 2.88 h | Cmax [8]: 22300 ng/mL | Tmax [9]: 1.33 h

Cc1cc(C)n2nc(Cn3ccc4nc(-c5ccccc5F)nc-4c3)nc2n1
EC50 [1]: Not Active

Fc1ccccc1-c1nc2ccn(Cc3nc4ccccc4n3-c3cccc(C(F)(F)F)c3)cc-2n1
EC50 [1]: Not Active

Fc1ccccc1-c1nc2ccn(Cc3ccc(-c4ccc(C(F)(F)F)cc4C(F)(F)F)nn3)cc-2n1 [TEGOBUVIR]
EC50 [10]: 2.9 nM
